Measurements published in ChEMBL document CHEMBL1795314, “Mycobacterium tuberculosis and cholinesterase inhibitors from Voacanga globosa” (Eur J Med Chem, 2011).
Converted amounts (≈) assume the structure as drawn.

Columns and labels:
[1] = test system: Mycobacterium tuberculosis; assay: Antitubercular activity against replicating Mycobacterium tuberculosis H37Rv ATCC 27294 at 50 ug/ml after 1 week by microplate alamar blue assay; type: functional; conditions: H37Rv ATCC 27294, 168 h
[2] = test system: Mycobacterium tuberculosis; assay: Antitubercular activity against replicating Mycobacterium tuberculosis H37Rv ATCC 27294 after 1 week by microplate alamar blue assay; type: functional; conditions: H37Rv ATCC 27294, 168 h
Cholinesterase = Cholinesterase (Equus caballus, UniProt P81908); assay: Inhibition of equine serum BChE by colorimetric Ellman's assay
Acetylcholinesterase = Acetylcholinesterase (Electrophorus electricus, UniProt O42275); assay: Inhibition of electric eel AChE by colorimetric Ellman's assay
[3] = test system: Mycobacterium tuberculosis; assay: Antitubercular activity against non-replicating Mycobacterium tuberculosis H37Rv ATCC 27294 incubated 10 days under anaerobic condition measured after 28 hrs of recovery in air by luciferase based low oxygen recovery assay; type: functional
[4] = test system: Mycobacterium tuberculosis; assay: Antitubercular activity against replicating Mycobacterium tuberculosis H37Rv ATCC 27294 at 20 ug/ml after 1 week by microplate alamar blue assay; type: functional; conditions: H37Rv ATCC 27294, 168 h
[5] = test system: Mycobacterium tuberculosis; assay: Antitubercular activity against replicating Mycobacterium tuberculosis H37Rv ATCC 27294 at 100 ug/ml after 1 week by microplate alamar blue assay; type: functional; conditions: H37Rv ATCC 27294, 168 h

Chain of Cholinesterase (P81908 whole entry): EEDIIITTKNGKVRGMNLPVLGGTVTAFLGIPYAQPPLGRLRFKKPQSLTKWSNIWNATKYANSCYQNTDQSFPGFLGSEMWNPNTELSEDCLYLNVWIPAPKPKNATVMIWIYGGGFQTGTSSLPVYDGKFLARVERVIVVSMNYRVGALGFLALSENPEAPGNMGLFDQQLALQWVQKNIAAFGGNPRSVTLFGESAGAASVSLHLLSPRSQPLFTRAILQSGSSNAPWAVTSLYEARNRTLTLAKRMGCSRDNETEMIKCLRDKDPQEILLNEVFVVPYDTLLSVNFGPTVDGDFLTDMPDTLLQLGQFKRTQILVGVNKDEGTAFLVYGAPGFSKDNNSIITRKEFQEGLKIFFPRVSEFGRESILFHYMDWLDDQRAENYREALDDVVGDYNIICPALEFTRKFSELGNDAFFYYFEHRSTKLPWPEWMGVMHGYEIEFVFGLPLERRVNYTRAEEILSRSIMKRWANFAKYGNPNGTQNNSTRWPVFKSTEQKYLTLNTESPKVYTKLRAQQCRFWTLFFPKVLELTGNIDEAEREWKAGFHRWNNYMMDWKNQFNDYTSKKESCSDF
Chain of Acetylcholinesterase (O42275 whole entry): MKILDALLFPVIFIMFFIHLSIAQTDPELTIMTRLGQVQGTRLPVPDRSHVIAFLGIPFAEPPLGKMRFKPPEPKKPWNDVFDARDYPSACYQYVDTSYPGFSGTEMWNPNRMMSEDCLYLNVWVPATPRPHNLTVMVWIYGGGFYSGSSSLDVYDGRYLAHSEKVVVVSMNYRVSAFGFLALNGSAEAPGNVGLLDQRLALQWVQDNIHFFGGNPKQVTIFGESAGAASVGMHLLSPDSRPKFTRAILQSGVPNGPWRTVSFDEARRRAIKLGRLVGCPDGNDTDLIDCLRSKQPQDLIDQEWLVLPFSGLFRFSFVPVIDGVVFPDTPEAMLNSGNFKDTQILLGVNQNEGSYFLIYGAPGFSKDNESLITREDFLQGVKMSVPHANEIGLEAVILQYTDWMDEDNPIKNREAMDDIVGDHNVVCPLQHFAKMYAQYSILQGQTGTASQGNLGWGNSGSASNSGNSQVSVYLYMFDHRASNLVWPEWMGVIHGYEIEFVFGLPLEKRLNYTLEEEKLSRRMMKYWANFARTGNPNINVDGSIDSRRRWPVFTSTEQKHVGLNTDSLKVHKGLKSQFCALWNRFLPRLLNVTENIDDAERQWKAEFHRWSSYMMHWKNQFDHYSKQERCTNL

SMILES	inhibition at 50 µg/mL [1] [%]	MIC [2] [µg/mL]	IC50 (Cholinesterase; read-out: IC50) [µM]	IC50 (Cholinesterase; read-out: pIC50 (converted)) [µM]	IC50 (Acetylcholinesterase) [µM]	MIC [3] [µg/mL]	inhibition at 20 µg/mL [4] [%]	inhibition at 100 µg/mL [5] [%]
COC(=O)C1=C2Nc3ccccc3[C@@]23CCN2C[C@]4(C[C@@H]5C[C@]67CCO[C@H]6CCN6CC[C@@]8(c9cccc(OC)c9N(C4)[C@@H]58)[C@@H]67)[C@@H]4OCC[C@]4(C1)[C@H]23 [DEOXYVOBTUSINE]	13	> 50	6.2	7.73	87	–	–	–
NNC(=O)c1ccncc1 [ISONIAZID]	–	0.68 (≈ 4.96 µM)	–	–	–	> 128	–	–
COC(=O)C1=C2Nc3ccccc3[C@@]23CCN2C[C@]4(C[C@@H]5C[C@]67CC(=O)C[C@H]6CCN6CC[C@@]8(c9cccc(OC)c9N(C4)[C@@]58O)[C@@H]67)[C@@H]4OCC[C@]4(C1)[C@H]23 [VOBTUSINE LACTONE]	13	> 50	18	–	90	–	–	–
COc1c(N2C[C@@H]3CCCN[C@@H]3C2)c(F)cc2c(=O)c(C(=O)O)cn(C3CC3)c12 [MOXIFLOXACIN]	–	0.83 (≈ 2.07 µM)	–	–	–	33.2 (≈ 82.7 µM)	–	–
CO[C@H]1/C=C/O[C@@]2(C)Oc3c(C)c(O)c4c(O)c(c(/C=N/N5CCN(C)CC5)c(O)c4c3C2=O)NC(=O)/C(C)=C\C=C\[C@H](C)[C@H](O)[C@@H](C)[C@@H](O)[C@@H](C)[C@H](OC(C)=O)[C@@H]1C [RIFAMPIN]	–	0.15 (≈ 0.182 µM)	–	–	–	0.84 (≈ 1.02 µM)	–	–
C=C(C)[C@@H]1CC[C@]2(C)CC[C@]3(C)[C@H](CC[C@@H]4[C@@]5(C)CC[C@H](O)C(C)(C)[C@@H]5CC[C@]43C)[C@@H]12 [LUPEOL]	–	> 20	–	–	–	–	0	–
COC(=O)C1=C2Nc3ccccc3[C@@]23CCN2C[C@]4(C[C@@H]5C[C@]67CC(=O)O[C@H]6CCN6CC[C@@]8(c9cccc(OC)c9N(C4)[C@@H]58)[C@@H]67)[C@@H]4OCC[C@]4(C1)[C@H]23 [DEOXYVOBSTUSINE LACTONE]	–	> 100	20.2	–	91	–	–	35
COC(=O)C1=C2Nc3ccccc3[C@@]23CCN2[C@H](O)[C@]4(C[C@@H]5C[C@]67CC(=O)O[C@H]6CCN6CC[C@@]8(c9cccc(OC)c9N(C4)[C@@H]58)[C@@H]67)[C@@H]4OCC[C@]4(C1)[C@H]23 [GLOBOSPIRAMINE]	–	4 (≈ 5.46 µM)	16.4	16.3	94	5.2 (≈ 7.1 µM)	–	–
